Patent US9144596B2, “Compositions and methods of treating neoplasia” (University of Florida Research Foundation, Inc., priority 2007, dated 2015)
“Also recorded” adds a separate entry of the source.

Experiments:
[1] = tested on: HCT-116(APC+/+) cells; experiment: sulforhodamine B (SRB) colorimetric cytotoxicity assay; type: cell-based, human; details: for effect on the cytotoxicity of TMZ: 2 hours pretreatment, then TMZ 48 hours
Experimental: (§1) The IC50 (the drug concentration needed to prevent cell proliferation by 50%) of TMZ was determined using a sulforhodamine B (SRB) colorimetric assay. This assay relies on the ability of SRB to bind the protein components of cells that have been fixed to tissue culture plates by trichloroacetic acid (TCA) (Vachai V, Kirtikara K. Sulforhodamine B colorimetric assay for cytotoxicity screening. Nat. Proto. 3: […], 2006). Briefly, the HCT-116(APC^+/+) and HCT-116(APC^−/−) were seeded in 96-well plates at a density of 500 cells per well. After 24 hours, while the cells were in the log phase of cell growth, the cells were treated with different concentrations of TMZ for 48 hours. The cells were subsequently fixed with 10% (w/v) of tricholoroacetic acid, washed with double distilled water, and stained with 0.4% SRB. Cells were then repeatedly washed with 1% (v/v) of acetic acid to remove the unbound dye. The protein bound dye was dissolved in 10 mM Tris-base solution (pH 10.5). The developed color was measured at 564 nm. The percentage of cell survival as a function of drug concentration was then plotted to determine the IC50 value. The IC50 of TMZ in HCT-116(APC^+/+) and HCT-116(APC^−/−) cells was 200 and 400 μM, respectively (FIG. 18A). […] This is consistent with the hypothesis that APC-mediated blockage of base excision repair increase d the sensitivity to TMZ in APC^+/+ cells. SRB assays were then used to determine whether TMZ-induced cytotoxicity was correlative to the increased level of APC in HCT-116(APC^+/+) cells.
(§2) APC blocked base excision repair and sensitized colon cancer cells after TMZ treatment. […] The cellular toxicity was determined by sulforhodamine B (SRB) colorimetric assay as described above. […] The cytotoxicity of these compounds was greater in HCT-116(APC^+/+) cells than in HCT-116(APC^−/−) cells (FIG. 19, compare the results of Panel A with B and C with D, respectively).

[2] = tested on: HCT-116(APC−/−) cells; experiment: as above; type: cell-based, human; details: for effect on the cytotoxicity of TMZ: 2 hours pretreatment, then TMZ 48 hours
Experimental: as §1, §2

[3] = tested on: HCT-116-APC(WT)+ch3 cells; experiment: SRB cytotoxicity assay, MMR-proficient cells; type: cell-based, human
Experimental: (§3) FIGS. 24A and 24D NSC-124854 enhanced the cytotoxicity of TMZ in both MMR-positive and MMR-negative colon cancer cell lines in culture. […] After 48 hours, cells were harvested and processed for cytotoxicity determination. Data presented are the mean±SE of three different estimations.
as §1

[4] = tested on: SW480 cells; experiment: SRB cytotoxicity assay, MMR-proficient cells; type: cell-based, human
Experimental: as §3, §1

[5] = tested on: CACO-2 cells; experiment: SRB cytotoxicity assay, MMR-deficient cells; type: cell-based; details: Homo sapiens; CACO-2, TMZ alone, 48 hours
Experimental: (§4) FIGS. 24A and 24D NSC-124854 enhanced the cytotoxicity of TMZ in both MMR-positive and MMR-negative colon cancer cell lines in culture. MMR-proficient [HCT-116-APC(WT)+ch3 and SW480 (Panel 24A and […])] and MMR-deficient [CACO-2 and LoVo (Panel 24C and 24D)] cells were pretreated for 2 hours with 50 μM of NSC-124854 followed by the treatment with different concentrations of TMZ. After 48 hours, cells were harvested and processed for cytotoxicity determination. Data presented are the mean±SE of three different estimations.
(§5) The IC50 (the drug concentration needed to prevent cell proliferation by 50%) of TMZ was determined using a sulforhodamine B (SRB) colorimetric assay. This assay relies on the ability of SRB to bind the protein components of cells that have been fixed to tissue culture plates by trichloroacetic acid (TCA) (Vachai V, Kirtikara K. Sulforhodamine B colorimetric assay for cytotoxicity screening. Nat. Proto. 3: […], 2006). Briefly, the HCT-116(APC^+/+) and HCT-116(APC^−/−) were seeded in 96-well plates at a density of 500 cells per well. After 24 hours, while the cells were in the log phase of cell growth, the cells were treated with different concentrations of TMZ for 48 hours. The cells were subsequently fixed with 10% (w/v) of tricholoroacetic acid, washed with double distilled water, and stained with 0.4% SRB. […]

[6] = tested on: LoVo cells; experiment: SRB cytotoxicity assay, MMR-deficient cells; type: cell-based; details: Homo sapiens, TMZ alone, 48 hours
Experimental: as §4, §5

[7] = biological target: T1, pol-β (Homo sapiens, UniProt P06746); experiment: dRP-lyase activity assay; type: biochemical; details: 1 nM pol-βwt; various concentrations of test substance
T1 construct: made in house; host or cells: Escherichia coli BL21(DE3)pLysS

[8] = biological target: T1, pol-β; experiment: strand-displacement synthesis, reconstituted in vitro base excision repair assay with 32P-F-DNA; type: biochemical; details: for pol-β-directed single-nucleotide incorporation: all the concentrations tested; for pol-β-directed strand-displacement synthesis: different concentrations
[9] = tested on: HCT-116(APC+/+) and HCT-116(APC−/−) colon cancer cell lines; experiment: SRB cytotoxicity of the compounds alone (FIGS. 19E and F); type: cell-based, human; details: up to 100 μM concentrations
Experimental: After 48 hours, cells were harvested and processed for cytotoxicity determination as described herein. […] Data are the mean±SE of three different estimations.
as §5, with “SRB. Cells were then repeatedly washed with 1% (v/v) of acetic acid to remove the unbound dye. The protein bound dye was dissolved in 10 mM Tris-base solution (pH 10.5). The developed color was measured at 564 nm.” for “SRB.”
APC blocked base excision repair and sensitized colon cancer cells after TMZ treatment. […] The cellular toxicity was determined by sulforhodamine B (SRB) colorimetric assay as described above. […]

[10] = biological target: T1, pol-β; experiment: in vitro SN- and LP-BER assay with 32P-U-DNA; type: biochemical; details: for complete repair of 32P-U-DNA by the SN-BER pathway: absence of Fen-1, DNA ligase I; for complete repair of 32P-U-DNA by the LP-BER pathway: presence of Fen-1, DNA ligase I
[11] = biological target: T1, pol-β; experiment: long patch-base excision repair assay with 32P-F-DNA; type: biochemical; details: pol-βwt, Fen-1, DNA ligase I; 2 μM APCwt peptide
Experimental: To determine whether the blockage in the strand-displacement synthesis by the pol-βMut-1 was sufficient to block long patch-base excision repair, a long patch-base excision repair assay was set up as outlined in FIG. 10A. […] This DNA repair was blocked in the presence of 2 μM APCwt peptide, but not with APC(I-A,Y-A) peptide (FIG. 10B, compare lane 5 with 8 for APCwt and with 9-11 for APC(I-A,Y-A), respectively, for the formation of the 63-mer ligated product). […] The 2-nucleotide strand-displacement synthesis by pol-βMut-1 protein was sufficient to carry out long patch-base excision repair in the presence of Fen-1.
To study long patch- and single nucleotide-base excision repair activities, different types of DNA substrates were used. For long patch-base excision repair activity, an AP-site analog (3-hydroxy-2-hydroxymethyltetrahydrofuran, noted as F) was introduced at the 24th position of the 63-mer DNA (5′-[…] CGACA-3′ (SEQ ID NOS 17-18)), which was called F-DNA (27). For making U-DNA, uracil was introduced at the 24th position of 63-mer sense oligonucleotide (5′-[…] GACA-3′ (SEQ ID NO: 19)). Sense strands of F-DNA and U-DNA were 5′-end labeled by [a-^32P]ATP and T4 polynucleotide kinase and purified with a nick-column (GE Healthcare, Piscataway, N.J.). Later they were annealed with the complementary 63-mer oligonucleotide (5′-[…] CTAG-3′ (SEQ ID NO: 20)) at a 1:1 molar ratio. […]

[12] = 32P-U-DNA substrate, dose-dependent

Compound	pol-β-directed dRP-lyase activity [7]	pol-β-directed single-nucleotide incorporation ([8]; 32P-F-DNA substrate)	pol-β-directed strand-displacement synthesis ([8]; 32P-F-DNA substrate)	effect on the cytotoxicity of TMZ ([1]; HCT-116(APC+/+))	effect on the cytotoxicity of TMZ [2]	cytotoxicity of the compound alone [9]	complete repair of 32P-U-DNA by the SN-BER pathway [10]	complete repair of 32P-U-DNA by the LP-BER pathway [10]	complete DNA repair of F-DNA (63-mer ligated product), LP-BER [11]	further results
Cn1nnc2c(C(N)=O)ncn2c1=O [TMZ, Temozolomide, reference compound]	–	–	–	–	–	–	–	–	–	IC50 ([1]; Homo sapiens, HCT-116(APC+/+), 48 hours, SRB, read-out: IC50 of TMZ): 200 µM; sensitivity to TMZ of HCT-116(APC+/+) versus HCT-116(APC−/−) cells ([1]; ratio of IC50): 2 times; IC50 ([2]; Homo sapiens, 48 hours, SRB, read-out: IC50 of TMZ): 400 µM; IC50 ([3]; Homo sapiens, HCT-116-APC(WT)+ch3, TMZ alone, 48 hours): 100 µM; IC50 ([4]; Homo sapiens, SW480, TMZ alone, 48 hours): 120 µM; IC50 [5]: 364 µM; IC50 [6]: 677 µM
O=C(O)CC(C(=O)O)C(CC(=O)O)C(=O)O (centres unmarked) [CN3]	did not inhibit	unaffected	dose-dependent decrease	–	–	–	–	–	–	–
Cc1cc(S(=O)(=O)Nc2n[nH]c(Nc3ccc(Cl)cc3)n2)c(S)cc1Cl [NSC-666715]	–	–	–	increased	increased	very low	–	–	–	–
APC(I-A,Y-A): mutant APC peptide 1250-KVSSINQETAQTACVEDTPI-1269, Ile1259 and Tyr1262 replaced with alanine (UniProt P25054 1250-1269, looked up, variant I1259A Y1262A) [reference compound]	did not show any effect	unaffected	not	–	–	–	not	not	not	–
NC1=NC(=O)N(C2CC(O)C(COP(=O)(O)O)O2)C(I)C1 (centres unmarked) [NSC-124854]	successfully blocked	–	dose-dependent decrease	increased	increased	very low	blocked in a dose-dependent manner	blocked in a dose-dependent manner	–	DNA synthesis (1-nt and strand-displacement) of pol-β ([8]; 32P-F-DNA substrate): completely blocked; potency among the four compounds tested, strand-displacement synthesis ([8]; inhibited at lower concentrations): most potent; Pol-β-mediated 1-nt incorporation [10, 12]: blocked; strand-displacement synthesis in the presence of Fen-1 [10, 12]: blocked; reduction of the IC50 of TMZ ([3]; HCT-116-APC(WT)+ch3, combination of 50 μM of NSC-124584): 2.5 fold; reduction of the IC50 of TMZ ([4]; SW480, combination of 50 μM of NSC-124584): 2.5 fold
APCwt: wild-type APC peptide of 20 amino acids, 1250-KVSSINQETIQTYCVEDTPI-1269, DNA repair inhibitory (DRI)-domain (UniProt P25054 1250-1269, looked up, fragment)	blocked	unaffected	dose-dependent decrease; also recorded: blocked	–	–	–	blocked	blocked	blocked	–
